# Laboratory results published in patent US5723494A, “Derivatives of glutamic and aspartic acids, a method of preparing them, and their use as drugs for enhancing memory and learning” (priority 1993, dated 1998).
# “Also recorded” adds a separate entry of the source.
# What was measured:
# [1] = Antidepressant activity in the behavioural despair test in the mouse; type: in vivo, mouse (male CD1)
# [2] = Antagonism of the amnesic effect induced by scopolamine in the passive avoidance test in the rat; type: in vivo; conditions: for % Effect vs controls / Latency (STL): FS + SCOP
# Protocol: 4) Antagonism of the amnesic effect induced by scopolamine in the "passive avoidance" test in the rat.
# The shuttle box equipment was used for passive avoidance as described in Experiment 2 with the following modifications: the compounds (or physiological solutions for the control group) were administered intraperitoneally (IP) 45 min before the training, whereas scopolamine (SCOP) was administered 30 min before the training. The foot shock (FS) consisted of a 0.2 mA shock of 5 sec duration.
# The retest to determine memory was executed 24 h after the training. In each individual experiment, the following groups were used: a control group (-FS), a control group (+FS), a control group (FS+SCOP), 3 treatment groups with different doses of the product under test (FS+SCOP).
# [3] = Antiamnesic activity in the mouse (step-down passive avoidance, amnesia induced by ECS); type: in vivo, mouse (CD1 male); conditions: mouse
# [4] = Acute toxicity (LD50) in the mouse; conditions: in vivo
# [5] = Memory-enhancement activity in the passive avoidance test in the rat; type: in vivo, rat (male Wistar); conditions: rat
structure (smiles),measurement,setting,value
"CC1(C)CCC(NC(=O)[C@@H](N)CCC(=O)O)CC1 [Compound 23, 1-(4,4-dimethylcyclohexyl)-L-isoglutamine[4-amino-5-(4',4'-dimethylcyclohexylamine)-5-oxopentanoic acid (S)]]",inhibition in vivo at 3 mg/kg,"[1]; 5 min, 3 mg/kg IP, 5 minutes, read-out: Decrease in immobility (as %) vs the controls",14%
same,inhibition in vivo at 10 mg/kg,"[1]; 5 min, 10 mg/kg IP, 5 minutes, read-out: Decrease in immobility (as %) vs the controls",31%
same,inhibition in vivo at 30 mg/kg,"[1]; 5 min, 30 mg/kg IP, 5 minutes, read-out: Decrease in immobility (as %) vs the controls",94%
same,Antidepressant activity (in words),[1]; IP,"antidepressant effect of the same order of magnitude as the comparison drug used, amitriptyline"
same,ED50,"[1]; IP, read-out: ED50 (dose antagonising immobility time by 50%)",11.1 mg/kg
same,% Effect vs controls,[2]; 0.1 mg/kg IP,7.1%
same,Latency (STL),[2]; 0.1 mg/kg IP,60.8 s
same,% Effect vs controls,[2]; 1 mg/kg IP,38.0%
same,Latency (STL),[2]; 1 mg/kg IP,72.0 s
same,% Effect vs controls,[2]; 10 mg/kg IP,55.8%
same,Latency (STL),[2]; 10 mg/kg IP,78.6 s
same,ED50,"[2]; IP, rat, retest 24 h after training, read-out: ID50 (dose antagonizing the amnesic effect of scopolamine by 50%)",4.7 mg/kg
same,Antagonism of the amnesic effect of scopolamine (in words),"[2]; rat, IP","antagonizes the amnesic effect induced by scopolamine in a dose-dependent manner; also recorded: comparable, in this model, with that of tacrine"
same,Antiamnesic activity (in words),[3]; OS,particularly remarkable
same,change in vivo at 0.1 mg/kg,"[3]; po, 0.1 mg/kg OS, retest 24 h after training, read-out: Reversal of the amnesia (% vs controls), as the increase in the Step Down Latency",20%
same,change in vivo at 1 mg/kg,"[3]; po, 1 mg/kg OS, retest 24 h after training, read-out: Reversal of the amnesia (% vs controls), as the increase in the Step Down Latency",40%
same,change in vivo at 3 mg/kg,"[3]; po, 3 mg/kg OS, retest 24 h after training, read-out: Reversal of the amnesia (% vs controls), as the increase in the Step Down Latency",37%
same,change in vivo at 10 mg/kg,"[3]; po, 10 mg/kg OS, retest 24 h after training, read-out: Reversal of the amnesia (% vs controls), as the increase in the Step Down Latency",61%
same,change in vivo at 30 mg/kg,"[3]; po, 30 mg/kg OS, retest 24 h after training, read-out: Reversal of the amnesia (% vs controls), as the increase in the Step Down Latency",67%
same,ED50,"[3]; po, OS, 60 min before training, read-out: ID50 (antiamnesic activity, dose inhibiting the amnesic effect of the ECS by 50%)",4.6 mg/kg
same,LD50,[4]; IV,290 mg/kg
same,LD50,"[4]; po, OS",1300 mg/kg
same,change in vivo at 0.1 mg/kg,"[5]; 96 h, 0.1 mg/kg IP, retest on the 4th day, 6 treatments, read-out: % variation vs controls (FS) in step through latency",11%
same,change in vivo at 1 mg/kg,"[5]; 96 h, 1 mg/kg IP, retest on the 4th day, 6 treatments, read-out: % variation vs controls (FS) in step through latency",19%
same,change in vivo at 10 mg/kg,"[5]; 96 h, 10 mg/kg IP, retest on the 4th day, 6 treatments, read-out: % variation vs controls (FS) in step through latency",43%
same,ED30,"[5]; IP, read-out: ED30 (dose increasing the latency time (STL) by 30%)",2.3 mg/kg
same,Activity in increasing the avoidance time (in words),"[5]; IP, retest on the 4th day",considerable activity in increasing the avoidance time
